From US20160303095A1, “METHODS OF TREATING HEPATITIS B VIRUS” (Gilead Sciences, Inc., priority 2015, published 2016)

Molecular target: T1, KDM2B (Homo sapiens, UniProt Q8NHM5)
T1 construct: host or cells: Sf9 cells
T1 sequence (Q8NHM5 1-1336): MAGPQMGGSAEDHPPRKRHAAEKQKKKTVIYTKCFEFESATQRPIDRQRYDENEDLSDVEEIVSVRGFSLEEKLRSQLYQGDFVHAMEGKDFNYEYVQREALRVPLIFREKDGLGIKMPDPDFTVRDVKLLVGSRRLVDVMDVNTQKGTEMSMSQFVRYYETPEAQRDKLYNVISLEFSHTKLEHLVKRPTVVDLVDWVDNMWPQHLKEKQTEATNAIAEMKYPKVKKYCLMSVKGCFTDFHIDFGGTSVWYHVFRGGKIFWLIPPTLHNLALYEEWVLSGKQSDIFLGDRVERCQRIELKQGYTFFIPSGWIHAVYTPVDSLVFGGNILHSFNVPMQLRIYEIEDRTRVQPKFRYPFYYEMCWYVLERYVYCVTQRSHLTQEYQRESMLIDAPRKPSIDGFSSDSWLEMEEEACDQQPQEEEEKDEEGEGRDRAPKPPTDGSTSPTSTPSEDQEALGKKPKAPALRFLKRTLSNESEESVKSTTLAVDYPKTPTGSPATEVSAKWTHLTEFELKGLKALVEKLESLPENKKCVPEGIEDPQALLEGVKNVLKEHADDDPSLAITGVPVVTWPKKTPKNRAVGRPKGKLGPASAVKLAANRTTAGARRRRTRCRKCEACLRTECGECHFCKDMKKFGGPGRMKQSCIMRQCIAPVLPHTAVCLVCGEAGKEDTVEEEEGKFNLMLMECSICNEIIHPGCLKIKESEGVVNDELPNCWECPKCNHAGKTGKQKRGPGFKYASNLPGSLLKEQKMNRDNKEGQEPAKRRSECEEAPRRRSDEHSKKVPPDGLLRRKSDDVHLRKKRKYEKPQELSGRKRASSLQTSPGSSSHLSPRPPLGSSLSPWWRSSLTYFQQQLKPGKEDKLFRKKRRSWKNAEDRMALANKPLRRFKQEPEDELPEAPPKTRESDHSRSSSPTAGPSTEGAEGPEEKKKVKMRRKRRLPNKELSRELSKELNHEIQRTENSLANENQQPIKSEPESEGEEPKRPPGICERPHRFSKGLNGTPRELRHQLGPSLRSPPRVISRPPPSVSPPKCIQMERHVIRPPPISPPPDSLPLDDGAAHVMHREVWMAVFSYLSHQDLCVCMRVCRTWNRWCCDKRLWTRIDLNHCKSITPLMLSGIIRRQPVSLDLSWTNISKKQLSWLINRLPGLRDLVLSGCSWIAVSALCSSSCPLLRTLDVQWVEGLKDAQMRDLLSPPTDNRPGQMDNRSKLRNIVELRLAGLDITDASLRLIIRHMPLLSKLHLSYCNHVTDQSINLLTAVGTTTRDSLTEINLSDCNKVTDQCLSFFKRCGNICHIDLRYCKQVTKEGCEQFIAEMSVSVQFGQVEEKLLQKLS
Experiment: Biochemical KDM inhibition assay (LANCE), KDM2B
Settings: read-out: Biochemical IC50 KDM 2B
Description: (§1) Representative compounds were characterized for their inhibition of KDM5 using biotinylated histone substrates. Inhibition was measured in vitro (CEREP Poitier, Le Bois l'Evêque, France) following experimental conditions described in Table 2. Briefly, the test compound, reference compound or water (control) was mixed with about 2-20 ng of recombinant, Human enzymes expressed in Sf9 cells in a buffer containing 45 mM Hepes/Tris (pH 7), 5 μM FAS, 100 μM ascorbic acid, 10 μM 2-oxoglutarate, 0.01% Tween 20 and 0.01% BSA. Thereafter, the reaction was initiated by adding the biotin-labeled substrate, and the mixture was incubated for 10-30 min at room temperature. For basal control measurements, the enzyme was omitted from the reaction mixture. Following incubation the reaction was stopped by adding 1 mM EDTA. After 5 min, the anti-methyl histone antibody labeled with europium chelate and the Ulight streptavidine (Perkin Elmer Waltham, Mass.) were added. After 60 min more, the fluorescence transfer was measured at λex=320 nm and λem=620 and λem=665 nm using a microplate reader (Envision, Perkin Elmer) (LANCE). The enzyme activity was determined by dividing the signal measured at λem=665 nm by that measured at 620 nm (ratio).

**Q.** With Nc1c(C(=O)O)ccnc1C(=O)O [Example 7, reference compound] as the compound, how does the IC50 read?
**A.** Its IC50 is 160 nM.

**Q.** Which IC50 does the source give for Cc1cc(Cl)ccc1COc1ccnn1-c1cc(C(=O)O)ccn1 [Example 11] here?
**A.** The IC50 was 660 nM.

**Q.** Which IC50 does the source give for O=C(O)c1ccncc1Nc1nn(CCN2CCC(F)(F)CC2)c2ccc(F)cc12 [Example 13] here?
**A.** The IC50 was 2400 nM.

**Q.** Which IC50 does the source give for CCN(CCN(C)C)C(=O)CNCc1cc(C(=O)O)ccn1 [Example 9] here?
**A.** Its IC50 is 1600 nM.

**Q.** With CCN(CC)CCCCNCc1cc(C(=O)O)ccn1 [Example 18] as the compound, how does the IC50 read?
**A.** The IC50 was 12000 nM.

Molecular target: T2, KDM6A (Homo sapiens, UniProt O15550)
T2 construct: host or cells: Sf9 cells
Experiment: Biochemical KDM inhibition assay (LANCE), KDM6A
Settings: read-out: Biochemical IC50 KDM 6A
Description: as §1

T2 sequence (O15550 whole entry): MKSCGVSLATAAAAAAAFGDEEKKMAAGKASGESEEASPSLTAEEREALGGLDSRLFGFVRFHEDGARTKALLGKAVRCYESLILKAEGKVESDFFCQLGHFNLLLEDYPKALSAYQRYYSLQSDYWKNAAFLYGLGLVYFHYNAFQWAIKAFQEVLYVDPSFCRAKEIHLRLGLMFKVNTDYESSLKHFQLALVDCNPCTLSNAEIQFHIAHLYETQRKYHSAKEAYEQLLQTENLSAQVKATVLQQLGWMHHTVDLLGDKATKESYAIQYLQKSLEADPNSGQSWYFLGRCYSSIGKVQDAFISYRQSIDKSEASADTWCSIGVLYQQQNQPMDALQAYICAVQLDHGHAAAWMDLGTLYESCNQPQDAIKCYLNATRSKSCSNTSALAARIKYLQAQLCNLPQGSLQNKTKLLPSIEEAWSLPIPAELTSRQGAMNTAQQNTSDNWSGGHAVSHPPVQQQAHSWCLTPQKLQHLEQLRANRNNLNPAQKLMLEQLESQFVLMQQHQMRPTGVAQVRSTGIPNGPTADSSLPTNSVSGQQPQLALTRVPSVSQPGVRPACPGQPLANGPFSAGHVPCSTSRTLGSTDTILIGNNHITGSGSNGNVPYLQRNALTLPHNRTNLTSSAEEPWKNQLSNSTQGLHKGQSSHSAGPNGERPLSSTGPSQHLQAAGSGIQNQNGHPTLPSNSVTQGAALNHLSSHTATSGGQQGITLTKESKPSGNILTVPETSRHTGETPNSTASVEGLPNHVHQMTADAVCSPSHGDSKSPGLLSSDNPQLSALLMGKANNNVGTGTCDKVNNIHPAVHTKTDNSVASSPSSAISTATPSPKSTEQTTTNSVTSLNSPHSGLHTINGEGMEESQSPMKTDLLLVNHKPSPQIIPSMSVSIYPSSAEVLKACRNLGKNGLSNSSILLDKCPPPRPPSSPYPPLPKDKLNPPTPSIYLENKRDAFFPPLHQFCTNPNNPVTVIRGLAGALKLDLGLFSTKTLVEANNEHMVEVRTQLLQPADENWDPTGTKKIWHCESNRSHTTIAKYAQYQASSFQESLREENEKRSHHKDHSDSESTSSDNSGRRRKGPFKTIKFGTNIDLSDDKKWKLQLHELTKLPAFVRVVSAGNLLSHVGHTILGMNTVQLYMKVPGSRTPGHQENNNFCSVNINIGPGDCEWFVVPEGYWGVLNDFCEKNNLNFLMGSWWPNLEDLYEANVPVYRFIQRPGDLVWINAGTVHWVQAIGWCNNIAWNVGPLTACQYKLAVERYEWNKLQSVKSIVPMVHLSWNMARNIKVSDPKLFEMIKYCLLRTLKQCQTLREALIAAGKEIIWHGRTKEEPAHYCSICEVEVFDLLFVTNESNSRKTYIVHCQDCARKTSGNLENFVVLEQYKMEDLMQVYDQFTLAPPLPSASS

**Q.** With Nc1c(C(=O)O)ccnc1C(=O)O [Example 7, reference compound] as the compound, how does the IC50 read?
**A.** The IC50 was 930 nM.

**Q.** With Cc1cc(Cl)ccc1COc1ccnn1-c1cc(C(=O)O)ccn1 [Example 11] as the compound, how does the IC50 read?
**A.** The IC50 was 74 nM.

**Q.** Which IC50 does the source give for O=C(O)c1ccncc1Nc1nn(CCN2CCC(F)(F)CC2)c2ccc(F)cc12 [Example 13] here?
**A.** Its IC50 is 140 nM.

**Q.** With CCN(CCN(C)C)C(=O)CNCc1cc(C(=O)O)ccn1 [Example 9] as the compound, how does the IC50 read?
**A.** Its IC50 is 1300 nM.

**Q.** With CCN(CC)CCCCNCc1cc(C(=O)O)ccn1 [Example 18] as the compound, how does the IC50 read?
**A.** The IC50 was 5500 nM.

Test system: not listed separately
Experiment: Alamar Blue cell viability assay
Format: cell-based
Settings: human; D 28; PHH donor 8181; virus 21p

**Q.** For Nc1c(C(=O)O)ccnc1C(=O)O [Example 7, reference compound], which CC50 at 28 day is on record?
**A.** Its CC50 at 28 day is > 50000 nM.

**Q.** With CCN(CCN(C)C)C(=O)CNCc1cc(C(=O)O)ccn1 [Example 9] as the compound, how does the CC50 at 28 day read?
**A.** Its CC50 at 28 day is > 100000 nM.

**Q.** For CCOC(=O)c1ccnc(CNCC(=O)N(CC)CCN(C)C)c1 [Example 8], which CC50 at 28 day is on record?
**A.** Its CC50 at 28 day is 20000 nM.
